According to ChEMBL document CHEMBL1201862, “PubChem BioAssay data set” (2004):
Activity calls are given as the source filed them. For most assays here, no stated cut-off is given here; in the data, actives have a measured IC50 and inactives only a lower limit.

Tests used:
Assay type in all cases: functional
[1] = target: T1, Sentrin-specific protease 7 (Homo sapiens, UniProt Q9BQF6);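 further: Luminescence-based dose-response confirmation of ultra-high-throughput screening hits, measuring inhibition of SENP7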
T1 sequence (Q9BQF6 whole entry): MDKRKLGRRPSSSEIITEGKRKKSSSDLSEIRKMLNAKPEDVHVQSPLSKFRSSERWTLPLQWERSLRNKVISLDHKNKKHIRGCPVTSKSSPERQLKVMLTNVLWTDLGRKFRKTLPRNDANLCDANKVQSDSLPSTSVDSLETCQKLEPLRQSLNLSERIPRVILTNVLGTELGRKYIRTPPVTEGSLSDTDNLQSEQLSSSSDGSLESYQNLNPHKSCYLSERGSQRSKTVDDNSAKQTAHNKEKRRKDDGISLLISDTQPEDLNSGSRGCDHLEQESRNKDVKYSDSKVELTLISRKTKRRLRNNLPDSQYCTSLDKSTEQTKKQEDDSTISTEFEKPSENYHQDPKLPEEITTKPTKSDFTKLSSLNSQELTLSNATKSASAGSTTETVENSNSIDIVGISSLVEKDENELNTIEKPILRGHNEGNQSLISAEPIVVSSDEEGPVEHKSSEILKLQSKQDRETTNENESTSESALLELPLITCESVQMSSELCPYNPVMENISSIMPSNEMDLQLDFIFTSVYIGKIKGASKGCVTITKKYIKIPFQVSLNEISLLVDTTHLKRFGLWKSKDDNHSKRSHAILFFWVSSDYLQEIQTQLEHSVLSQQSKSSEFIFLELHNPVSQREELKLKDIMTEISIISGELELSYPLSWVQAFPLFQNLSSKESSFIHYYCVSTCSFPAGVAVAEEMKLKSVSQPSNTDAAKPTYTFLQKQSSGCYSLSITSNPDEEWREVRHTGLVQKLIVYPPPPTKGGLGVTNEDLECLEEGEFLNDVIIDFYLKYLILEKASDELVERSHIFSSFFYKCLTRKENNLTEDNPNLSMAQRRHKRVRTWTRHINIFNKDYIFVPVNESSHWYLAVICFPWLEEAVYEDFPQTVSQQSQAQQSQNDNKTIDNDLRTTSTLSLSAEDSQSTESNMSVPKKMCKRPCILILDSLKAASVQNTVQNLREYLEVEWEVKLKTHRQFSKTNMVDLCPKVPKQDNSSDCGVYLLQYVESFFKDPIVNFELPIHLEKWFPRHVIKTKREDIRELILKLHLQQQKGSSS

[2] = target: T2, Sentrin-specific protease 6 (Homo sapiens, UniProt Q9GZR1);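 further: Luminescence-based dose-response confirmatory assay of SENP6 inhibition, following up an ultra-high-throughput screen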
T2 sequence (Q9GZR1 whole entry): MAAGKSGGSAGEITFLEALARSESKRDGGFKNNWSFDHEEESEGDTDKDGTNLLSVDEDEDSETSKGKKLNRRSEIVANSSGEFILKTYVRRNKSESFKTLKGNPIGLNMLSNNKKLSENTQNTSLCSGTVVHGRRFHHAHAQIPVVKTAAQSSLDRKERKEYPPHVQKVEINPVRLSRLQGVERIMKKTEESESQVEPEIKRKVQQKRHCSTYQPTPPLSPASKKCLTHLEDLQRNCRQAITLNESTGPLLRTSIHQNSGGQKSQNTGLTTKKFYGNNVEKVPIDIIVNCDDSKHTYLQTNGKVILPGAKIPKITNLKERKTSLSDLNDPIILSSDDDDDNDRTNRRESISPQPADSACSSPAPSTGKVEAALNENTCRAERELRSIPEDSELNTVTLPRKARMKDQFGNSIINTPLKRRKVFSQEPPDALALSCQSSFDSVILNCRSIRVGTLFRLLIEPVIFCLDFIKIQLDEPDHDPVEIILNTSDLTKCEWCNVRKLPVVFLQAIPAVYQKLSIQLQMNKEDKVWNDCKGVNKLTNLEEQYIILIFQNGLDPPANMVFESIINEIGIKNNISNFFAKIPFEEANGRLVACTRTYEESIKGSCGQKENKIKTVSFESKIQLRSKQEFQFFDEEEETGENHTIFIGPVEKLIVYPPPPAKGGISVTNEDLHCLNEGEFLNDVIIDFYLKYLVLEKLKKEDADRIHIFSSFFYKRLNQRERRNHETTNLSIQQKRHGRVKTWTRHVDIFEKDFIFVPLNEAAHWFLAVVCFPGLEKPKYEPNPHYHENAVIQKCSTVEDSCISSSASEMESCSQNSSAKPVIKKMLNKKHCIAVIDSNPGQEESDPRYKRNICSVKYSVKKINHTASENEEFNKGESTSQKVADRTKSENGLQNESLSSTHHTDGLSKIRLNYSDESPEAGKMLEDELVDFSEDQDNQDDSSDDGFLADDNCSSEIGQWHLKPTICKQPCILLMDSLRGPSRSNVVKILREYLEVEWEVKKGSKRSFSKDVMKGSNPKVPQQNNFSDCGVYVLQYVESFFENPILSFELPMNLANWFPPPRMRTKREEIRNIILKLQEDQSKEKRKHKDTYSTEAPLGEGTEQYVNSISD

[3] = target: T3, Sentrin-specific protease 8 (Homo sapiens, UniProt Q96LD8);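 further: luminescence read-out of SENP8 inhibition, dose-response confirmation following an ultra-high-throughput screen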
T3 sequence (Q96LD8 whole entry): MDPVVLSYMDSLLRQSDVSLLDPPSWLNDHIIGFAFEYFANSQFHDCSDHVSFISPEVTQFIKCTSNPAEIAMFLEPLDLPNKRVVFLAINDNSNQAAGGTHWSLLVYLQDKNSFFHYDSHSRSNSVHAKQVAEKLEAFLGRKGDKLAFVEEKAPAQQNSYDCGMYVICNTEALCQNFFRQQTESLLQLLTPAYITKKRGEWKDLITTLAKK

[4] = target: Induced myeloid leukemia cell differentiation protein Mcl-1 (Homo sapiens, UniProt Q07820)

Measured: IC50

Induced myeloid leukemia cell differentiation protein Mcl-1, sequence (Q07820 whole entry): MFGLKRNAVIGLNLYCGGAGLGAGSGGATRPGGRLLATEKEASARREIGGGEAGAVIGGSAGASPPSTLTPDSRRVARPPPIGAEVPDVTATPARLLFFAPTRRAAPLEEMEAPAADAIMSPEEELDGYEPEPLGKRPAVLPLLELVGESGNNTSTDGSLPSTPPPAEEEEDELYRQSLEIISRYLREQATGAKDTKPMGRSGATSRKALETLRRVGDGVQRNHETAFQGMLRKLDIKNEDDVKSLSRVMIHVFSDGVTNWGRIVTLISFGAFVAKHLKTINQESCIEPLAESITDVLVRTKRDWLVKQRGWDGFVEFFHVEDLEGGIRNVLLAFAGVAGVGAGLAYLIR

COc1ccc(C(=O)Nc2nc3c(s2)Cc2cc(OC)ccc2-3)cc1
active: [1] 2.36 µM | [2] 1.65 µM | [3] 2.29 µM | [4] 3.75 µM

Cc1oc2c(c1C(=O)c1ccccc1)C(=O)C(=O)c1ccccc1-2
active: [1] 9.15 µM | [2] 6.87 µM | [3] 12.8 µM

O=C(O)COc1ccc(/C=N/NC(=O)c2ccc(-c3csc(Nc4ccc(Cl)cc4)n3)cc2)cc1
active: [4] 0.886 µM

CC(/C=C1\SC(=S)N(NS(=O)(=O)c2ccccc2)C1=O)=C\c1ccccc1
active: [1] 30.7 µM | [2] 2.64 µM | [3] 2.86 µM | [4] 20.6 µM
